Data taken from US11938129B2, “Methods and compositions for the treatment of vascular disease” (THE GENERAL HOSPITAL CORPORATION, priority 2018, dated 2024).
{FAM} = FAM fluorophore (/36-FAM/)

Columns and labels:
a-SMA and SM22a = experiment: immunofluorescence of contractile proteins in ligated carotids; type: in vivo, mouse; conditions: ligated carotid, in contrast to carotid VSMCs in wild type animals
Protocol: All mice used in this study were cared for under strict compliance with the Partners Institutional Animal Care and Use Committee (IACUC), regulated by the United States Public Health Service (USPHS). Carotid ligations were performed in 10 week old mice. Briefly, animals were anesthetized using intraperitoneal ketamine/xylazine (80 and 12 mg/kg, respectively) followed by a small incision in the neck to expose the carotid artery. Then the left carotid was ligated at the carotid bifurcation level using a 8-0 silk suture. At 21 days mice were sacrificed and carotids were collected for histological analysis. Approximately 98% of wild type mice developed stenotic lesions. Mice that developed thrombosis of the ligated carotid were excluded from the study (−1¬2%). Malatl knockout mice were kindly provided by Dr. David Spector (Cold Spring Harbor, N.Y.). Hdac9 flox/flox/Talgn-cre mice were generated as previously reported (10). Ezh2 fl/fl/ (STOCK Ezh2tm2Sho/J) and Myh11-cre-GFP (B6.Cg-Tg(Myh11-cre,-EGFP)2Mik/J) were crossed to generate smooth muscle cell-Ezh2 deficient mice. All above mice and wild-type mice (C57BL/6J) were purchased from Jackson laboratory. For tissue analysis, animals were euthanized through inhalational isoflurane (Sigma, St, Louis, Mo.) prior to tissue collection. All carotid ligation (left carotid) procedures were performed at 10 weeks of age. All experiments were performed on male and female animals at a 1:1 ratio.
Left and right carotids were cryosectioned using OCT standard protocol and sectioning. The right carotid artery was unligated and served as an internal control. Neoinitima analysis was performed from hematoxylin and eosin (H & E) stained horizontal cross-sections embedded in Optimal Cutting Temperature compound (OCT). Briefly, the distal 0.2 mm of carotid from the ligation suture site were discarded followed by generation of 20 slides (10 pM). Slides 1, 5, 10, and 15 were H&E stained for quantification of neointima. For quantification of the neointima, internal and external elastic lamina perimeters and medial thickness from 4 quadrants were measured and averaged using Image J software from the National Institutes of Health (NIH). Slides 2-4, 6-9, and 11-14 were used for immunofluorescence staining.
Cohorts of 10-week-old wild-type mice were treated with oral administration in drinking water of GSK343 24 hrs before left carotid ligation and following treatment for 3 weeks. GSK343 inhibitor (25 mg) was dissolved in 1 mL of DMSO to obtain a stock solution of 46 mM. Then, 250 ml of drinking water was supplemented with 250 pl of GSK343 stock solution. Control group for was given with equal volumes of sterile water. Bottles containing GSK343 were replaced with fresh water supplied with drug every 3 days. […]

[1] = delivery of fluorescently labeled GapmeR to the vasculature; type: in vivo, mouse; conditions: ligated carotid of GapmeR treated mice, not in vehicle and GSK343 treated mice

## 3′-FAM-GapmeR-Malatl: fluorescently labeled GapmeR against MALAT1, GTCACAATGCATTCTA/36-FAM/ (SEQ ID NO: 2) (3' {FAM}, sugars by position and backbone not given here; LNA gapmer)
a-SMA and SM22a
  expression of α-SMA in carotid VSMCs: robust expression
[1]
  detection of 3′-FAM labeled GapmeR in ligated carotid: Detection
